Test results taken from paper PMC11003488 (Journal of Enzyme Inhibition and Medicinal Chemistry, 2023).

Legend:
Assay type in all cases: cell-based
Settings in all cases: Homo sapiens
[1] = system: HL-60(TB); assay: cells
[2] = system: IGROV1; assay: NCI-60 SRB growth inhibition, one-dose and five-dose
[3] = system: SK-MEL-5; assay: as above
[4] = system: OVCAR-4; assay: as above
[5] = system: MALME-3M; assay: as above
[6] = system: SF-539; assay: as above
[7] = system: K-562; assay: as above
[8] = system: SNB-19; assay: as above
[9] = system: MDA-MB-435; assay: as above
[10] = system: SK-OV-3; assay: as above
[11] = system: CCRF-CEM; assay: as above
[12] = system: BT-549; assay: as above
[13] = system: NCI/ADR-RES; assay: as above
[14] = system: COLO 205; assay: as above
[15] = system: TK-10; assay: as above
[16] = system: HT29; assay: as above
[17] = system: PC-3; assay: as above
[18] = system: HS 578 T; assay: as above
[19] = system: SR; assay: as above
[20] = system: NCI-H226; assay: as above
[21] = system: HOP-92; assay: as above
[22] = system: NCI-H522; assay: as above
[23] = system: DU-145; assay: as above
[24] = system: UACC-62; assay: as above
[25] = system: 786-0; assay: as above
[26] = system: LOX IMVI; assay: as above
[27] = system: SF-295; assay: as above
[28] = system: M14; assay: as above
[29] = system: RXF 393; assay: as above
[30] = system: A498; assay: as above
[31] = system: NCI-H460; assay: as above
[32] = system: SK-MEL-28; assay: as above
[33] = system: SW-620; assay: as above
[34] = system: SNB-75; assay: as above
[35] = system: OVCAR-5; assay: as above
[36] = system: U251; assay: as above
[37] = system: NCI-H322M; assay: as above
[38] = system: SF-268; assay: as above
[39] = system: MDA-MB-468; assay: as above
[40] = system: HOP-62; assay: as above
[41] = system: A549/ATCC; assay: as above
[42] = system: MOLT-4; assay: as above
[43] = read-out: percent growth inhibition

`CC(=O)Nc1ccc(/C=C/C(=O)c2cccc(NCc3csc4ccccc34)c2)cc1` [Compound 5i, (E)-N-(4–(3-(3-((benzo[b]thiophen-3-ylmethyl)amino)phenyl)-3-oxoprop-1-en-1-yl)phenyl) acetamide] gave a GI50 ([1]; HL-60) of 3.53 µM, an inhibition at 10 µM ([1]; HL-60, read-out: percent growth inhibition) of 123% and a GI50 ([2]; IGROV-1) of 4.18 µM. It also gave an inhibition at 10 µM ([2]; IGROV-1, read-out: percent growth inhibition) of 56.9%, a GI50 ([3]; SK-MEL-5) of 5.97 µM and an inhibition at 10 µM ([3]; SK-MEL-5, read-out: percent growth inhibition) of 85.9%. The GI50 ([4]; OVCAR-4) was 9.52 µM, the inhibition at 10 µM ([4]; OVCAR-4, read-out: percent growth inhibition) was 64.8% and the GI50 [5] was 9.28 µM. It also gave an inhibition at 10 µM [5, 43] of 55.5%, a GI50 ([6]; SF-539) of 2.74 µM and an inhibition at 10 µM ([6]; SF-539, read-out: percent growth inhibition) of 171%. It also gave a GI50 ([7]; K562) of 3.07 µM, an inhibition at 10 µM ([7]; K562, read-out: percent growth inhibition) of 114% and a GI50 ([8]; SNB-19) of 3.76 µM. The inhibition at 10 µM ([8]; SNB-19, read-out: percent growth inhibition) was 98%, the GI50 ([9]; MDA-MB-435) was 4.37 µM and the inhibition at 10 µM ([9]; MDA-MB-435, read-out: percent growth inhibition) was 49.2%. It also gave a GI50 ([10]; SK-OV-3) of 16.7 µM, an inhibition at 10 µM ([10]; SK-OV-3, read-out: percent growth inhibition) of 1.94% and a GI50 [11] of 2.87 µM. It also gave an inhibition at 10 µM [11, 43] of 125%, a GI50 ([12]; BT-549) of 4.29 µM and an inhibition at 10 µM ([12]; BT-549, read-out: percent growth inhibition) of 83.6%. The GI50 [13] was 2.79 µM, the inhibition at 10 µM [13, 43] was 117% and the GI50 ([14]; COLO 205) was 17 µM. The inhibition at 10 µM ([14]; COLO 205, read-out: percent growth inhibition) was 19.8%, the GI50 ([15]; TK-10) was 17.6 µM and the inhibition at 10 µM ([15]; TK-10, read-out: percent growth inhibition) was 23.9%. For the same compound, the GI50 ([16]; HT-29) was 5.38 µM, the inhibition at 10 µM ([16]; HT-29, read-out: percent growth inhibition) was 92.8% and the GI50 ([17]; PC-3) was 4.57 µM. It also gave an inhibition at 10 µM ([17]; PC-3, read-out: percent growth inhibition) of 70.8%, a GI50 [18] of 4.49 µM and an inhibition at 10 µM [18, 43] of 68.5%. For the same compound, the GI50 [19] was 2.79 µM, the GI50 ([20]; NCI-H226) was 7.73 µM and the inhibition at 10 µM ([20]; NCI-H226, read-out: percent growth inhibition) was 91.9%. The GI50 ([21]; HOP-92) was 18.3 µM, the inhibition at 10 µM ([21]; HOP-92, read-out: percent growth inhibition) was 12.3% and the GI50 ([22]; NCI-H522) was 5.78 µM. For the same compound, the inhibition at 10 µM ([22]; NCI-H522, read-out: percent growth inhibition) was 87.6%, the GI50 ([23]; DU-145) was 5.45 µM and the inhibition at 10 µM ([23]; DU-145, read-out: percent growth inhibition) was 74.7%. For the same compound, the GI50 ([24]; UACC-62) was 6.44 µM, the inhibition at 10 µM ([24]; UACC-62, read-out: percent growth inhibition) was 76.7% and the GI50 ([25]; 786-0) was 11.4 µM. The inhibition at 10 µM ([25]; 786-0, read-out: percent growth inhibition) was 81.8%, the GI50 [26] was 2.05 µM and the inhibition at 10 µM [26, 43] was 174%. For the same compound, the GI50 ([27]; SF-295) was 11.9 µM, the inhibition at 10 µM ([27]; SF-295, read-out: percent growth inhibition) was 73.1% and the GI50 ([28]; M14) was 10.9 µM. It also gave an inhibition at 10 µM ([28]; M14, read-out: percent growth inhibition) of 57.7%, a GI50 ([29]; RXF 393) of 10 µM and an inhibition at 10 µM ([29]; RXF 393, read-out: percent growth inhibition) of 93.2%. The GI50 ([30]; A498) was 17.4 µM, the inhibition at 10 µM ([30]; A498, read-out: percent growth inhibition) was 9.33% and the GI50 ([31]; NCI-H460) was 3.84 µM. For the same compound, the inhibition at 10 µM ([31]; NCI-H460, read-out: percent growth inhibition) was 88.9%, the GI50 ([32]; SK-MEL-28) was 11.9 µM and the inhibition at 10 µM ([32]; SK-MEL-28, read-out: percent growth inhibition) was 53.4%. The GI50 ([33]; SW-620) was 2.6 µM, the inhibition at 10 µM ([33]; SW-620, read-out: percent growth inhibition) was 123% and the GI50 ([34]; SNB-75) was 3.39 µM. It also gave an inhibition at 10 µM ([34]; SNB-75, read-out: percent growth inhibition) of 30.5%, a GI50 ([35]; OVCAR-5) of 13 µM and an inhibition at 10 µM ([35]; OVCAR-5, read-out: percent growth inhibition) of 30.4%. The GI50 ([36]; U-251) was 2.24 µM, the inhibition at 10 µM ([36]; U-251, read-out: percent growth inhibition) was 165% and the GI50 [37] was 17.5 µM. The inhibition at 10 µM [37, 43] was 41.2%, the GI50 ([38]; SF-268) was 12.7 µM and the inhibition at 10 µM ([38]; SF-268, read-out: percent growth inhibition) was 80%. The GI50 ([39]; MDA-MB-468) was 4 µM, the inhibition at 10 µM ([39]; MDA-MB-468, read-out: percent growth inhibition) was 97.9% and the GI50 ([40]; HOP-62) was 11.2 µM. It also gave an inhibition at 10 µM ([40]; HOP-62, read-out: percent growth inhibition) of 73.8%, a GI50 ([41]; A549) of 17 µM and an inhibition at 10 µM ([41]; A549, read-out: percent growth inhibition) of 45.8%. For the same compound, the GI50 ([42]; MOLT-4) was 2.73 µM and the inhibition at 10 µM ([42]; MOLT-4, read-out: percent growth inhibition) was 111%.
